Source: US20120213727A1, “THERAPEUTIC USES OF OLIGOMERIC AND POLYMERIC MONOTERPENES” (REGENERA PHARMA LTD., priority 2009, published 2012)

System: ARPE-19 cells
Assay: Neuronal-like differentiation in ARPE-19 retinal pigment epithelial cell cultures
Format: cell-based, human
Settings: 72 hrs incubation, optical microscope
Procedure: ARPE-19 cells (obtained from the American Type Culture Collection, ATCC) were plated in flat bottom 96 well tissue culture microplates (Costar) at a concentration of 2-5×10^3 cells per well (1-2.5×10^4 cells/mL) in a growth medium consisting of DMEM:Ham F-12, 1:1, supplemented with 10% Fetal Bovine Serum, […] glutamine, 100 units/mL penicillin and 100 μg/mL streptomycin. The cells were allowed to adhere to the plate surfaces overnight prior to treatment with polymeric monoterpene.
Each type of polymeric monoterpene was synthesized to provide a 10% solution in grape seed oil, olive oil, Mygliol 810 or Mygliol 812. The preparations were added to the cultures at volumes of 0.5 μl, 2 μl, 5 μl and 20 μl. […]
The cultures were incubated in a 37° C., 5% CO2 incubator for 72 hrs. The medium was then removed, the cultures washed twice with phosphate buffered saline (PBS), fixed with absolute methanol for 10 min and stained with Hemacolor® reagents (Boehringer Mannheim), which stain cells in a manner similar to Giemsa, and may be used in a quantitative cell viability assay (see Keisari, Y. A colorimetric microtiter assay for the quantitation of cytokine activity on adherent cells in tissue culture. J. Immunol. Methods 146, 155-161, 1992). The degree of differentiation was determined by optical microscope. […]

CC=C(C)C=CC=C(C)C [monomeric alloocimene, 2,6-dimethyl-2,4,6-octatriene]
induction of neuronal differentiation (morphology): showed no such effects | induction of neuronal differentiation (morphology) (listed as monomeric allocimene): has no influence on the cells
